The values below come from article PMC11024854 (Theranostics, 2024).

The target of assay [1] is T1, HSP90α (HSP90AA1) (Homo sapiens, UniProt P07900).
T1 construct: recombinant human HSP90AA1 protein
Description: SPR (Biacore […], immobilized HSP90AA1); also C-terminal HSP90α:PPID AlphaLISA inhibition at […]. Type of assay: binding.

Assay [2] concerns the target T2, HSP90α (Homo sapiens, UniProt P07900).
T2 construct: gene HSP90AA1; purified recombinant HSP90α (N-terminal domain assay kit)
As to the kind of experiment: competitive binding assay against FITC-labeled geldanamycin ([…] compound).

Molecules are shown by their SMILES.

The compound `COc1c(C(=O)Nc2ccc3c(C)nn(CCC4CCN(C)CC4)c3c2)ccc2c1C=CC(C)(C)O2` [HVH-2930] came in with a Kd in assay [1] of 97.2 µM. `CC(C)c1cc(C(=O)N2Cc3ccc(CN4CCN(C)CC4)cc3C2)c(O)cc1O` [onalespib]: the “competitive binding assay against FITC-labeled geldanamycin (1000 nM compound)” value in assay [2] was “unlike the N-terminal HSP90 inhibitors, neither HVH-2930 nor novobiocin exhibited any binding activity to the N-terminal region of HSP90α”.
